# Experimental data from publication PMC5049785, “Characterization of Novel Antimalarial Compound ACT-451840: Preclinical Assessment of Activity and Dose–Efficacy Modeling” (PLoS Medicine, 2016).
# Entries after “also recorded” stand apart in the source; their conditions may differ.
# Legend:
# [1] = tested on: P. falciparum W2 (Vietnam); test: [3H]-hypoxanthine incorporation assay, W2; assay type: cell-based, Plasmodium falciparum; conditions: read-out: 50% inhibitory concentration (IC50); W2, resistance CQ, SUL, PYR, CYC; mean ± SD
# [2] = tested on: P. falciparum NF54 female gametocytes; test: P. falciparum dual gamete formation assay, female; assay type: cell-based, Plasmodium falciparum; conditions: up to a concentration of 20 μM, 24 h incubation
# Description: Mature P. falciparum NF54 gametocytes were cultured at Imperial College London (London, United Kingdom), as previously described. […] Male gamete formation was quantified by computer-aided automated identification and counting of exflagellation centers. Female gamete formation was visualized by live immunofluorescence with a Cy3-conjugated antibody specific for Pfs25—a female gamete expressed surface protein. […] IC50 values were calculated using GraphPad Prism version 6 using the logarithmic versus normalized response (variable slope) function (Graphpad Software, San Diego, US).
# [3] = Single compartment PK model with saturable absorption (predicted blood PK); set-up: species or system mice; conditions: for Time over threshold (h), predicted: threshold 1,000 ng/mL
# Description: In order to analyze the PK/PD relationship, drug exposure was predicted for all tested doses in P. berghei mouse model using a single compartment model with saturable absorption based on the concentration–time profile observed after 10, 100, and 300 mg/kg single-dose regimen in healthy mice.
# [4] = tested on: P. falciparum oocysts in Anopheles stephensi; test: Standard membrane feeding assay, direct mode; assay type: cell-based, Plasmodium falciparum; conditions: compound added at the time of mosquito feeding, concentrations up to 1 μM
# Description: ACT-451840 was tested in the standard membrane feeding assay at TropIQ (Nijmegen, The Netherlands) in two modes, as previously described. In the direct mode, the compound was directly added to a bloodmeal containing mature stage V gametocytes that was fed to Anopheles stephensi mosquitoes. […] Seven days after the bloodmeal, the number of oocysts in the midgut was determined by microscopy for both modes. […] Vehicle control (0.1% DMSO) and positive control (10 μM dihydroartemisinin) were included. Twenty mosquitoes were dissected per sample, and oocyst load was analyzed per mosquito.
# [5] = mouse PK model parameter estimate
# [6] = single-dose regimen, oral 10 mg/kg
# [7] = single-dose regimen, oral 15 mg/kg
# [8] = single-dose regimen, oral 20 mg/kg
# [9] = single-dose regimen, oral 25 mg/kg
# [10] = single-dose regimen, oral 30 mg/kg
# [11] = single-dose regimen, oral 60 mg/kg
# [12] = single-dose regimen, oral 80 mg/kg
# [13] = single-dose regimen, oral 100 mg/kg
# [14] = single-dose regimen, oral 300 mg/kg
# [15] = triple-dose regimen, oral 3 mg/kg once per day
# [16] = triple-dose regimen, oral 10 mg/kg once per day
# [17] = triple-dose regimen, oral 30 mg/kg once per day
# [18] = triple-dose regimen, oral 50 mg/kg once per day
# [19] = triple-dose regimen, oral 100 mg/kg once per day
# [20] = triple-dose regimen, oral 300 mg/kg once per day
# [21] = triple-dose regimen, oral 2 x 15 mg/kg (twice per day)
# [22] = triple-dose regimen, oral 2 x 30 mg/kg (twice per day)
compound,measurement,setting,value
CC(=O)N1CCN(c2ccc(CN(C(=O)/C=C/c3ccc(C(C)(C)C)cc3)[C@@H](Cc3ccccc3)C(=O)N3CCN(Cc4ccc(C#N)cc4)CC3)cc2)CC1 [ACT-451840],IC50,[1],0.2 ± 0.1 nM
same,effect on functional viability of female gametocytes (Pfs25 expression),[2],no activity; also recorded: no effect
same,total AUC giving an ED90,"[3]; P. berghei model, triple-dose regimen of 13 mg/kg","16,300 ng*h/mL"
same,Clearance/bioavailability,[3]; [5],2.4 L/h
same,Concentration at half the maximal absorption,[3]; [5],64000 ng/mL
same,Max Absorption,[3]; [5],21 µg/h/kg
same,Volume of distribution/bioavailability,[3]; [5],4.3 L/kg
same,"Cmax (ng/mL), predicted",[3]; [6],617 ng/mL
same,"Tmax (h), predicted",[3]; [6],3 h
same,"Total AUC over the treatment period (ng/mL*h), predicted",[3]; [6],4170 ng·h/mL
same,"Time over threshold (h), predicted",[3]; [6],0 h
same,"Cmax (ng/mL), predicted",[3]; [7],901 ng/mL
same,"Tmax (h), predicted",[3]; [7],3 h
same,"Total AUC over the treatment period (ng/mL*h), predicted",[3]; [7],6260 ng·h/mL
same,"Time over threshold (h), predicted",[3]; [7],0 h
same,"Cmax (ng/mL), predicted",[3]; [8],1170 ng/mL
same,"Tmax (h), predicted",[3]; [8],3 h
same,"Total AUC over the treatment period (ng/mL*h), predicted",[3]; [8],8350 ng·h/mL
same,"Time over threshold (h), predicted",[3]; [8],0 h
same,"Cmax (ng/mL), predicted",[3]; [9],1420 ng/mL
same,"Tmax (h), predicted",[3]; [9],3 h
same,"Total AUC over the treatment period (ng/mL*h), predicted",[3]; [9],10400 ng·h/mL
same,"Time over threshold (h), predicted",[3]; [9],0 h
same,"Cmax (ng/mL), predicted",[3]; [10],1670 ng/mL
same,"Tmax (h), predicted",[3]; [10],3 h
same,"Total AUC over the treatment period (ng/mL*h), predicted",[3]; [10],12500 ng·h/mL
same,"Time over threshold (h), predicted",[3]; [10],0 h
same,"Cmax (ng/mL), predicted",[3]; [11],2900 ng/mL
same,"Tmax (h), predicted",[3]; [11],4 h
same,"Total AUC over the treatment period (ng/mL*h), predicted",[3]; [11],25100 ng·h/mL
same,"Time over threshold (h), predicted",[3]; [11],7 h
same,"Cmax (ng/mL), predicted",[3]; [12],3540 ng/mL
same,"Tmax (h), predicted",[3]; [12],4 h
same,"Total AUC over the treatment period (ng/mL*h), predicted",[3]; [12],33400 ng·h/mL
same,"Time over threshold (h), predicted",[3]; [12],9 h
same,"Cmax (ng/mL), predicted",[3]; [13],4090 ng/mL
same,"Tmax (h), predicted",[3]; [13],6 h
same,"Total AUC over the treatment period (ng/mL*h), predicted",[3]; [13],41800 ng·h/mL
same,"Time over threshold (h), predicted",[3]; [13],11 h
same,"Cmax (ng/mL), predicted",[3]; [14],6690 ng/mL
same,"Tmax (h), predicted",[3]; [14],6.5 h
same,"Total AUC over the treatment period (ng/mL*h), predicted",[3]; [14],126000 ng·h/mL
same,"Time over threshold (h), predicted",[3]; [14],24 h
same,"Cmax (ng/mL), predicted",[3]; [15],192 ng/mL
same,"Tmax (h), predicted",[3]; [15],27 h
same,"Total AUC over the treatment period (ng/mL*h), predicted",[3]; [15],3750 ng·h/mL
same,"Time over threshold (h), predicted",[3]; [15],0 h
same,"Cmax (ng/mL), predicted",[3]; [16],617 ng/mL
same,"Tmax (h), predicted",[3]; [16],27 h
same,"Total AUC over the treatment period (ng/mL*h), predicted",[3]; [16],12500 ng·h/mL
same,"Time over threshold (h), predicted",[3]; [16],0 h
same,"Cmax (ng/mL), predicted",[3]; [17],"1,670 ng/mL"
same,"Tmax (h), predicted",[3]; [17],51 h
same,"Total AUC over the treatment period (ng/mL*h), predicted",[3]; [17],37600 ng·h/mL
same,"Time over threshold (h), predicted",[3]; [17],0 h
same,"Cmax (ng/mL), predicted",[3]; [18],2530 ng/mL
same,"Tmax (h), predicted",[3]; [18],27 h
same,"Total AUC over the treatment period (ng/mL*h), predicted",[3]; [18],62700 ng·h/mL
same,"Time over threshold (h), predicted",[3]; [18],16 h
same,"Cmax (ng/mL), predicted",[3]; [19],4100 ng/mL
same,"Tmax (h), predicted",[3]; [19],52 h
same,"Total AUC over the treatment period (ng/mL*h), predicted",[3]; [19],125000 ng·h/mL
same,"Time over threshold (h), predicted",[3]; [19],32 h
same,"Cmax (ng/mL), predicted",[3]; [20],6830 ng/mL
same,"Tmax (h), predicted",[3]; [20],54 h
same,"Time over threshold (h), predicted",[3]; [20],72 h
same,"Cmax (ng/mL), predicted",[3]; [21],1060 ng/mL
same,"Tmax (h), predicted",[3]; [21],35 h
same,"Total AUC over the treatment period (ng/mL*h), predicted",[3]; [21],37600 ng·h/mL
same,"Time over threshold (h), predicted",[3]; [21],0 h
same,"Cmax (ng/mL), predicted",[3]; [22],1980 ng/mL
same,"Tmax (h), predicted",[3]; [22],59 h
same,"Total AUC over the treatment period (ng/mL*h), predicted",[3]; [22],75200 ng·h/mL
same,"Time over threshold (h), predicted",[3]; [22],8 h
same,activity against P. falciparum oocysts,[4],did not show any activity
